According to patent US8288365B2, “Phenazopyridine compounds” (Pinnacle Pharmaceuticals, Inc., priority 2008, dated 2012):
Converted amounts (≈) assume the structure as drawn. Read-outs that look alike come from different tables or passages of the source. One block for each compound: values may come before it.

Assays:
[1] = Solubility of PAP prodrugs in 0.1N HCl; format: physicochemical; conditions: for solubility: simulated gastric fluid
[2] = Pharmacokinetics of PAP and intact Gly-PAP in dogs (plasma and urine) after oral gavage; format: in vivo
Description: Pharmacokinetics for PAP and Gly-PAP (intact prodrug) were assessed in dogs following administration by oral gavage of mg/kg doses. Blood (approximately 2 mL) was collected from a jugular vein into tubes containing lithium heparin anticoagulant predose and at 0.083, 0.25, 0.5, 1, 2, 4, 8, 12, and 24 hours postdose. Urine was collected into plastic containers surrounded by wet ice predose (−18 to 0) and 0 to 24 hours postdose. The volume of each sample was recorded. Plasma and urine samples were assayed for PAP and Gly-PAP by LC-MS-MS.

[3] = Pharmacokinetics of PAP and intact Gly-PAP in male rats after oral gavage; format: in vivo
Description: Pharmacokinetics for PAP and Gly-PAP (intact prodrug) were assessed in male rats following administration by oral gavage of mg/kg doses. Rats were fasted overnight prior to dosing. Blood samples were withdrawn at 0.25, 0.5, 1, 2, 4, 6, and 24 hours. The whole blood was centrifuged immediately, and supernatant (plasma) was collected. The plasma samples were assayed for PAP and Gly-PAP by LC-MS-MS.

dogs = experiment: Emesis in dogs after oral TID dosing; format: in vivo; conditions: dogs (1 male/1 female), oral gavage TID, 24.8 mg/kg phenazopyridine base equivalent per dose
Description: Dogs (1 male/1 female) were dosed by oral gavage 3 times (TID), once every 8 hours, with 40 mg/kg Gly-PAP or 29 mg/kg phenazopyridine HCl (doses contained an equivalent amount of 24.8 mg/kg phenazopyridine base). […] Results showing reduction of the GI side effect of emesis are illustrated in FIG. 18.

[4] = Oral bioavailability of PAP prodrugs in rats (plasma PAP by LC-MS-MS); format: in vivo
Description: The oral bioavailability of PAP (phenazopyridine) prodrugs was evaluated in healthy rats. All the PAP amide (amino acid derivatives) bases were dissolved in 0.1N HCl (the same result can be obtained with a lower molarity), while the carbamates were dissolved in PEG-400 due to the very poor aqueous solubility of the PAP-carbamates. In general, all of the amino acid amide derivatives of PAP had higher water solubility than those of the PAP-carbamates. In another PK study, PAP.HCL salt, Gly-PAP.HCl salt and Gly-PAP.mesylate salt were dissolved in water, affording a clear solution in each case prior to oral administration.
(§1) The rats were fasted overnight prior to dosing. Appropriate amount of each compound was administered via gastric gavages, and at predetermined time (1, 2, 4, 6, and 24 h) blood samples were withdrawn from the rats. The whole blood was centrifuged immediately, and supernatant (plasma) was collected. The plasma samples were assayed for PAP using LC-MS-MS.

rabbits = conditions: 39 mg/kg/day; cited from earlier work
[5] = cited from earlier work
bacteria = conditions: cited from earlier work
mammalian cells = conditions: cited from earlier work
rats [6] = conditions: cited from earlier work
rats [7] = conditions: doses up to 50 mg/kg/day or 110 mg/kg/day; cited from earlier work
mice = conditions: i.p.; cited from earlier work
female mice = conditions: cited from earlier work
[8] = PAP pharmacokinetics in rats after oral Gly-PAP salt forms; format: in vivo; conditions: PAP in rat plasma, 2.5 mg/kg PAP base equivalent (2.8 for free base)
Description: The oral bioavailability of PAP (phenazopyridine) prodrugs was evaluated in healthy rats.
as §1
The pharmacokinetics of various salts of Gly-PAP were compared following oral administration to rats.

rats [9] = conditions: long term (2 years); cited from earlier work

Compound: C[C@H](N)C(=O)Nc1ccc(/N=N/c2ccccc2)c(N)n1 [Alanyl-PAP, Alanyl-Phenazopyridine]
solubility [1]: 2000 µg/mL (≈ 7030 µM)

Compound: Nc1nc(NC(=O)OCc2ccccc2)ccc1/N=N/c1ccccc1 [Benzylcarbamyl-PAP, Benzylcarbamyl-Phenazopyridine]
solubility [1]: < 100 µg/mL

Compound: CCOC(=O)Nc1ccc(/N=N/c2ccccc2)c(N)n1 [Ethylcarbamyl-PAP, Ethylcarbamyl-Phenazopyridine]
solubility [1]: < 100 µg/mL

Compound: NCC(=O)Nc1ccc(/N=N/c2ccccc2)c(N)n1 [Gly-PAP, Glycyl-Phenazopyridine (6-N-Glycylphenazopyridine)]
Amount of phenazopyridine delivered to the urine ([2]; 8.1 mg/kg Gly-PAP versus equivalent phenazopyridine HCl, urine 0 to 24 hours): a greater amount of phenazopyridine was delivered to the urine
Exposure (AUC0-24) to Gly-PAP relative to that for phenazopyridine ([2]; Gly-PAP 8.1 mg/kg): less than 10%
Plasma Tmax for phenazopyridine (comparison) ([2]; Gly-PAP compared to phenazopyridine HCl): increased
AUC of phenazopyridine from 0.9 mg/kg Gly-PAP versus 2.8 mg/kg phenazopyridine HCl ([3]; 0.6 versus 2.5 mg/kg phenazopyridine base): approximately equal AUC
Plasma levels of Gly-PAP relative to those for phenazopyridine from Gly-PAP ([3]; Gly-PAP 4.0 mg/kg): < 5%
solubility [1]: > 2000 µg/mL
Observations of vomitus (dogs): single observation of vomitus

Compound: Nc1nc(NC(=O)[C@@H](N)Cc2c[nH]cn2)ccc1/N=N/c1ccccc1 [Histidinyl-PAP, Histidinyl-Phenazopyridine]
solubility [1]: > 10000 µg/mL

Compound: CC(C)COC(=O)Nc1ccc(/N=N/c2ccccc2)c(N)n1 [Isobutylcarbamyl-PAP, Isobutylcarbamyl-Phenazopyridine]
solubility [1]: < 100 µg/mL
Tmax ([4]; rats, oral): longer

Compound: Nc1ccc(/N=N/c2ccccc2)c(N)n1 [Phenazopyridine]
Effects on fertility or embryo-fetal development (rabbits): no effects on fertility or embryo-fetal development
Excreted unchanged in urine ([5]; oral): up to 65%
Single dose cleared within 24 hours ([5]; within 24 hours): approximately 90%
Mutagenicity (bacteria): mutagenic
Mutagenicity and clastogenicity (mammalian cells): mutagenic and clastogenic
Acute toxicity LD50 (rats [6]; i.p.): 200 mg/kg
Acute toxicity LD50 (rats [6]; oral): 472 mg/kg
Effects on fertility or embryo-fetal development (rats [7]): no effects on fertility or embryo-fetal development
Acute toxicity LD50 (mice): 180 mg/kg

Compound: phenazopyridine hydrochloride [PAP•HCl]
Tumour induction on lifetime administration (female mice): caused hepatocellular adenomas and carcinomas
Plasma bioavailability of phenazopyridine ([2]; phenazopyridine HCl versus equivalent Gly-PAP): greater plasma bioavailability
Solubility in 0.1N HCl [1]: 500 µg/mL
Tmax [8]: 15 min
AUC0-6 ([8]; SD printed in the row below): 105 ng·h/mL
Cmax ([8]; water vehicle (0.1N HCl for free base)): 58 ng/mL
Tmax ([4]; fasted rats, single oral gavage): <60 min
AUC0-24 ([4]; fasted rats, single oral gavage, 0-24 hr): 182 ± 12 ng·h/mL
Tumour induction on long term administration (rats [9]): induced adenomas and adenocarcinomas in the large intestine
Observations of vomitus (dogs): four observations of vomitus

Continued, values first:

solubility [1]: > 2500 µg/mL
Compound: NCCCC[C@H](N)C(=O)Nc1ccc(/N=N/c2ccccc2)c(N)n1 [Lysyl-PAP, Lysyl-Phenazopyridine]

solubility [1]: 1000 µg/mL (≈ 2900 µM)
Compound: CSCC[C@H](N)C(=O)Nc1ccc(/N=N/c2ccccc2)c(N)n1 [Methionyl-PAP, Methionyl-Phenazopyridine]

solubility [1]: 500 µg/mL (≈ 1250 µM)
Tmax ([4]; rats, oral): longer
Compound: Nc1nc(NC(=O)[C@@H](N)Cc2c[nH]c3ccccc23)ccc1/N=N/c1ccccc1 [Tryptophanyl-PAP, Tryptophanyl-Phenazopyridine]

solubility [1]: > 2500 µg/mL
Compound: CC(C)[C@H](N)C(=O)Nc1ccc(/N=N/c2ccccc2)c(N)n1 [Valyl-PAP, Valyl-Phenazopyridine]
